{"source": "patent US11708562B2", "about": "“Differentiation of human embryonic stem cells” (Janssen Biotech, Inc., priority 2006, dated 2023)", "system": "H9P33, H9P44 and H9P48 cells", "assay": "Microarray analysis of definitive endoderm on MEFs vs MATRIGEL +/- Wnt-3A (Table VI)", "settings": "DE treatment in low serum, on MATRIGEL", "experimental": "Controls for each group included cells plated on […]-coated dishes and cultured in MEF-conditioned medium or cells plated on MEFs and cultured in ES medium. All groups contained three biological replicates and each biological replicate was repeated on two separate gene chips.\nSample preparation, hybridization, and image analysis were performed according to the Affymetrix Human Genome U133 Plus 2.0 Array. Following normalization and a log transformation, data analysis was performed using OmniViz® software (MA) and […] (VizXLabs, WA). Significant differences in gene expression between the samples were evaluated using analysis of variance and an F-test with adjusted P-value (Benjamini and Hochberg correction) of ≤0.05. Only genes with a present call in at least one group were included in the analysis.", "data": [{"substance": "Activin A: a member of the TGFβ superfamily; growth factor (R&D Systems) used to differentiate human embryonic stem cells", "values": [{"measurement": "mean normalized intensity (log format), 6-phosphofructo-2-kinasefructose-2,6-biphosphatase 4", "result": "−0.2429"}, {"measurement": "mean normalized intensity (log format), Cluster Incl. AB028021: Homo sapiens HNF-3beta mRNA for hepatocyte nuclear factor-3 beta", "result": "−1.5339"}, {"measurement": "mean normalized intensity (log format), ESTs", "result": "−3.574"}, {"measurement": "mean normalized intensity (log format), ESTs, Highly similar to IHH_HUMAN INDIAN HEDGEHOG PROTEIN PRECURSOR (H. sapiens)", "result": "−0.654"}, {"measurement": "mean normalized intensity (log format), ESTs, Moderately similar to JE0284 Mm-1 cell derived transplantability-associated protein 1b (H. sapiens)", "result": "−2.377"}, {"measurement": "mean normalized intensity (log format), ESTs, Weakly similar to FCE2 MOUSE LOW AFFINITY IMMUNOGLOBULIN EPSILON FC RECEPTOR (M. musculus)", "result": 0.4942}, {"measurement": "mean normalized intensity (log format), ESTs, Weakly similar to the 331st table hypothetical protein KIAA0555 (H. sapiens)", "result": "−1.574"}, {"measurement": "mean normalized intensity (log format), G protein-coupled receptor", "result": 1.507}, {"measurement": "mean normalized intensity (log format), G protein-coupled receptor 49", "result": 0.2655}, {"measurement": "mean normalized intensity (log format), Homo sapiens HNF-3beta mRNA for hepatocyte nuclear factor-3 beta", "result": "−2.718"}, {"measurement": "mean normalized intensity (log format), Homo sapiens KIAA0878 protein (KIAA0878), mRNA", "result": 2.0265}, {"measurement": "mean normalized intensity (log format), Homo sapiens Kell blood group (KEL), mRNA", "result": "−2.205"}, {"measurement": "mean normalized intensity (log format), Homo sapiens MLL septin-like fusion (MSF), mRNA", "result": "−3.292"}, {"measurement": "mean normalized intensity (log format), Homo sapiens Mix-like homeobox protein 1 (MILD1) mRNA", "result": "−1.546"}, {"measurement": "mean normalized intensity (log format), Homo sapiens Rho GTPase activating protein 6 (ARHGAP6), transcript variant 2, mRNA", "result": "−1.104"}, {"measurement": "mean normalized intensity (log format), Homo sapiens TBX3-iso protein (TBX3-iso), mRNA", "result": "−2.346"}, {"measurement": "mean normalized intensity (log format), Homo sapiens angiopoietin 2 (ANGPT2), mRNA", "result": "−2.93"}, {"measurement": "mean normalized intensity (log format), Homo sapiens ankyrin-like with transmembrane domains 1 (ANKTM1), mRNA", "result": "−1.109"}, {"measurement": "mean normalized intensity (log format), Homo sapiens apolipoprotein A-I (APOA1), mRNA", "result": "−1.471"}, {"measurement": "mean normalized intensity (log format), Homo sapiens apolipoprotein A-II (APOA2), mRNA", "result": "−1.033"}, {"measurement": "mean normalized intensity (log format), Homo sapiens arylsulfatase E (chondrodysplasia punctata 1) (ARSE), mRNA", "result": 0.283}, {"measurement": "mean normalized intensity (log format), Homo sapiens atrophin-1 interacting protein 1; activin receptor interacting protein 1 (KIAA0705), mRNA", "result": "−4.308"}, {"measurement": "mean normalized intensity (log format), Homo sapiens beta-site APP cleaving enzyme (BACE) mRNA", "result": "−2.0354"}, {"measurement": "mean normalized intensity (log format), Homo sapiens cDNA FLJ11550 fis, clone HEMBA1002970", "result": "−1.222"}, {"measurement": "mean normalized intensity (log format), Homo sapiens cDNA FLJ12993 fis, clone NT2RP3000197", "result": 0.1473}, {"measurement": "mean normalized intensity (log format), Homo sapiens cDNA FLJ13221 fis, clone NT2RP4002075", "result": 0.3557}, {"measurement": "mean normalized intensity (log format), Homo sapiens cardiac ventricular troponin C mRNA", "result": "−0.5497"}, {"measurement": "mean normalized intensity (log format), Homo sapiens cartilage linking protein 1 (CRTL1), mRNA", "result": "−1.315"}, {"measurement": "mean normalized intensity (log format), Homo sapiens cell adhesion molecule with homology to L1CAM (close homologue of L1) (CHL1), mRNA", "result": "−0.5412"}, {"measurement": "mean normalized intensity (log format), Homo sapiens chromosome 19, cosmid R31181", "result": "−0.2589"}, {"measurement": "mean normalized intensity (log format), Homo sapiens clone 23736 mRNA sequence", "result": "−0.04718"}, {"measurement": "mean normalized intensity (log format), Homo sapiens cryptic mRNA, complete cds", "result": 0.1049}, {"measurement": "mean normalized intensity (log format), Homo sapiens cystatin S (CST4), mRNA", "result": 0.9245}, {"measurement": "mean normalized intensity (log format), Homo sapiens cystatin SA (CST2), mRNA", "result": "−0.1022"}, {"measurement": "mean normalized intensity (log format), Homo sapiens cystatin SN (CST1), mRNA", "result": 0.07293}, {"measurement": "mean normalized intensity (log format), Homo sapiens cytidine deaminase (CDA), mRNA", "result": "−3.891"}, {"measurement": "mean normalized intensity (log format), Homo sapiens dual specificity phosphatase 4 (DUSP4), mRNA", "result": 0.9539}, {"measurement": "mean normalized intensity (log format), Homo sapiens fibroblast growth factor 8 (androgen-induced) (FGF8), mRNA", "result": "−4.328"}, {"measurement": "mean normalized intensity (log format), Homo sapiens fibroblast growth factor 17 (FGF17), mRNA", "result": "−0.8946"}, {"measurement": "mean normalized intensity (log format), Homo sapiens frizzled-related protein (FRZB), mRNA", "result": 0.565}, {"measurement": "mean normalized intensity (log format), Homo sapiens gastrin-releasing peptide (GRP), mRNA", "result": "−2.741"}, {"measurement": "mean normalized intensity (log format), Homo sapiens glycophorin B (includes Ss blood group) (GYPB), mRNA", "result": "−0.9473"}, {"measurement": "mean normalized intensity (log format), Homo sapiens glycophorin E (GYPE), mRNA", "result": "−2.016"}, {"measurement": "mean normalized intensity (log format), Homo sapiens glycophorin Erik STA (GPErik) gene", "result": "−1.194"}, {"measurement": "mean normalized intensity (log format), Homo sapiens growth differentiation factor 3 (GDF3), mRNA", "result": 1.673}, {"measurement": "mean normalized intensity (log format), Homo sapiens haptoglobin (HP), mRNA", "result": "−1.101"}, {"measurement": "mean normalized intensity (log format), Homo sapiens haptoglobin-related protein (HPR), mRNA", "result": "−2.6068"}, {"measurement": "mean normalized intensity (log format), Homo sapiens homeobox protein goosecoid mRNA, complete cds", "result": "−4.42"}, {"measurement": "mean normalized intensity (log format), Homo sapiens hypothetical protein FLJ10718 (FLJ10718), mRNA", "result": 2.605}, {"measurement": "mean normalized intensity (log format), Homo sapiens hypothetical protein FLJ10970 (FLJ10970), mRNA", "result": "−0.432"}, {"measurement": "mean normalized intensity (log format), Homo sapiens hypothetical protein FLJ11316 (FLJ11316), mRNA", "result": "−0.9047"}, {"measurement": "mean normalized intensity (log format), Homo sapiens hypothetical protein FLJ22252 similar to SRY-box containing gene 17 (FLJ22252), mRNA", "result": 1.368}, {"measurement": "mean normalized intensity (log format), Homo sapiens hypothetical protein FLJ23403 (FLJ23403), mRNA", "result": "−1.485"}, {"measurement": "mean normalized intensity (log format), Homo sapiens lumican (LUM), mRNA", "result": "−4.057"}, {"measurement": "mean normalized intensity (log format), Homo sapiens mRNA for GATA-6, complete cds", "result": 2.219}, {"measurement": "mean normalized intensity (log format), Homo sapiens mRNA for KIAA1409 protein, partial cds", "result": 0.3683}, {"measurement": "mean normalized intensity (log format), Homo sapiens mRNA; cDNA DKFZp434D0818 (from clone DKFZp434D0818)", "result": "−2.634"}, {"measurement": "mean normalized intensity (log format), Homo sapiens mRNA; cDNA DKFZp586J0624 (from clone DKFZp586J0624)", "result": "−0.8352"}, {"measurement": "mean normalized intensity (log format), Homo sapiens matrix metalloproteinase 14 (membrane-inserted) (MMP14), mRNA", "result": "−0.7235"}, {"measurement": "mean normalized intensity (log format), Homo sapiens phorbolin-like protein MDS019 (MDS019), mRNA", "result": "−1.119"}, {"measurement": "mean normalized intensity (log format), Homo sapiens presenilin stabilization factor b (PSF) mRNA", "result": "−0.8617"}, {"measurement": "mean normalized intensity (log format), Homo sapiens reserved (KCNK12), mRNA", "result": "−0.4687"}, {"measurement": "mean normalized intensity (log format), Homo sapiens retinoid X receptor, gamma (RXRG), mRNA", "result": "−2.375"}, {"measurement": "mean normalized intensity (log format), Homo sapiens sema domain, immunoglobulin domain (Ig), short basic domain, secreted, (semaphorin) 3E (SEMA3E), mRNA", "result": "−0.786"}, {"measurement": "mean normalized intensity (log format), Homo sapiens sema domain, seven thrombospondin repeats, (semaphorin) 5A (SEMA5A), mRNA", "result": "−1.533"}, {"measurement": "mean normalized intensity (log format), Homo sapiens solute carrier family 16 (monocarboxylic acid transporters), member 3 (SLC16A3), mRNA", "result": 0.7103}, {"measurement": "mean normalized intensity (log format), Homo sapiens solute carrier family 21 (prostaglandin transporter), member 2 (SLC21A2), mRNA", "result": 0.7114}, {"measurement": "mean normalized intensity (log format), Homo sapiens type VI collagen alpha 2 chain precursor (COL6A2) mRNA", "result": 1.7011}, {"measurement": "mean normalized intensity (log format), Homo sapiens, alpha-1 (VI) collagen", "result": "−3.662"}, {"measurement": "mean normalized intensity (log format), Homo sapiens, clone MGC: 4655, mRNA", "result": 2.3772}, {"measurement": "mean normalized intensity (log format), Human (clone 8B1) Br-cadherin mRNA", "result": "−2.179"}]}]}
